Measured values reported in ChEMBL document CHEMBL3046000, “Design and synthesis of 1-(benzothiazol-5-yl)-1H-1,2,4-triazol-5-ones as protoporphyrinogen oxidase inhibitors” (Bioorg Med Chem, 2013).

Assays:
Chenopodium album [1] = experiment: Post-emergence herbicidal activity against Chenopodium album seedlings assessed as plant growth inhibition at 150 g ai/ha measured 15 days after compound treatment under greenhouse conditions; type: functional; conditions: 360 h, read-out: GI
Amaranthus retroflexus [2] = experiment: Post emergence herbicidal activity against Amaranthus retroflexus seedlings assessed as plant growth inhibition at 150 g ai/ha measured 15 days after compound treatment under greenhouse conditions; type: functional; conditions: 360 h, read-out: GI
Brassica juncea [3] = experiment: Post-emergence herbicidal activity against Brassica juncea seedlings assessed as plant growth inhibition at 150 g ai/ha measured 15 days after compound treatment under greenhouse conditions; type: functional; conditions: 360 h, read-out: GI
Setaria faberi [4] = experiment: Post-emergence herbicidal activity against Setaria faberi (Giant Foxtail) seedlings assessed as plant growth inhibition at 150 g ai/ha measured 15 days after compound treatment under greenhouse conditions; type: functional; conditions: 360 h, read-out: GI
Digitaria sanguinalis [5] = experiment: Post-emergence herbicidal activity against Digitaria sanguinalis (hairy crabgrass) seedlings assessed as plant growth inhibition at 150 g ai/ha measured 15 days after compound treatment under greenhouse conditions; type: functional; conditions: 360 h, read-out: GI
Echinochloa crus-galli [6] = experiment: Post emergence herbicidal activity against Echinochloa crus-galli (barnyard grass) seedlings assessed as plant growth inhibition at 150 g ai/ha measured 15 days after compound treatment under greenhouse conditions; type: functional; conditions: 360 h, read-out: GI
[7] = molecular target: T1, Protoporphyrinogen oxidase, chloroplastic (Nicotiana tabacum, UniProt O24163); experiment: Inhibition of Nicotiana tabacum (tobacco) recombinant PPO assessed as protoporphyrin IX formation at room temperature by fluorimetric assay
T1 sequence (O24163 whole entry): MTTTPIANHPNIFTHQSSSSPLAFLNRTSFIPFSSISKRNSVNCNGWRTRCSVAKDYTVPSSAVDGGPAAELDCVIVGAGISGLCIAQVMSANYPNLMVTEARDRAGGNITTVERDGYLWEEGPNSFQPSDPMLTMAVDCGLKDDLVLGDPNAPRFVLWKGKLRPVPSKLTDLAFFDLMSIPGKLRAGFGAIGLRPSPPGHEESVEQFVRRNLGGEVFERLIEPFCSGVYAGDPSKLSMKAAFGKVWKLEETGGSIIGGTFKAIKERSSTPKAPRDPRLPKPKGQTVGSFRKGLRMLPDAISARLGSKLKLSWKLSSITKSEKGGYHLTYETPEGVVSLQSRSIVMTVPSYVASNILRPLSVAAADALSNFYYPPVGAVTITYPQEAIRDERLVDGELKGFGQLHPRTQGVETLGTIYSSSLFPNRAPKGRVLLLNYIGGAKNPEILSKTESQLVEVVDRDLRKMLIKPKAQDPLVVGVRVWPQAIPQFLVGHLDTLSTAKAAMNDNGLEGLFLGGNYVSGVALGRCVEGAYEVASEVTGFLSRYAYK

Chenopodium album [8] = experiment: Post-emergence herbicidal activity against Chenopodium album seedlings assessed as plant growth inhibition at 75 g ai/ha measured 15 days after compound treatment under greenhouse conditions; type: functional; conditions: 360 h, read-out: GI
Chenopodium album [9] = experiment: Post-emergence herbicidal activity against Chenopodium album seedlings assessed as plant growth inhibition at 37.5 g ai/ha measured 15 days after compound treatment under greenhouse conditions; type: functional; conditions: 360 h, read-out: GI
Amaranthus retroflexus [10] = experiment: Post emergence herbicidal activity against Amaranthus retroflexus seedlings assessed as plant growth inhibition at 75 g ai/ha measured 15 days after compound treatment under greenhouse conditions; type: functional; conditions: 360 h, read-out: GI
Amaranthus retroflexus [11] = experiment: Post emergence herbicidal activity against Amaranthus retroflexus seedlings assessed as plant growth inhibition at 37.5 g ai/ha measured 15 days after compound treatment under greenhouse conditions; type: functional; conditions: 360 h, read-out: GI
Brassica juncea [12] = experiment: Post-emergence herbicidal activity against Brassica juncea seedlings assessed as plant growth inhibition at 75 g ai/ha measured 15 days after compound treatment under greenhouse conditions; type: functional; conditions: 360 h, read-out: GI
Brassica juncea [13] = experiment: Post-emergence herbicidal activity against Brassica juncea seedlings assessed as plant growth inhibition at 37.5 g ai/ha measured 15 days after compound treatment under greenhouse conditions; type: functional; conditions: 360 h, read-out: GI
Setaria faberi [14] = experiment: Post-emergence herbicidal activity against Setaria faberi (Giant Foxtail) seedlings assessed as plant growth inhibition at 75 g ai/ha measured 15 days after compound treatment under greenhouse conditions; type: functional; conditions: 360 h, read-out: GI
Setaria faberi [15] = experiment: Post-emergence herbicidal activity against Setaria faberi (Giant Foxtail) seedlings assessed as plant growth inhibition at 37.5 g ai/ha measured 15 days after compound treatment under greenhouse conditions; type: functional; conditions: 360 h, read-out: GI
Digitaria sanguinalis [16] = experiment: Post-emergence herbicidal activity against Digitaria sanguinalis (hairy crabgrass) seedlings assessed as plant growth inhibition at 75 g ai/ha measured 15 days after compound treatment under greenhouse conditions; type: functional; conditions: 360 h, read-out: GI
Digitaria sanguinalis [17] = experiment: Post-emergence herbicidal activity against Digitaria sanguinalis (hairy crabgrass) seedlings assessed as plant growth inhibition at 37.5 g ai/ha measured 15 days after compound treatment under greenhouse conditions; type: functional; conditions: 360 h, read-out: GI
Echinochloa crus-galli [18] = experiment: Post emergence herbicidal activity against Echinochloa crus-galli (barnyard grass) seedlings assessed as plant growth inhibition at 75 g ai/ha measured 15 days after compound treatment under greenhouse conditions; type: functional; conditions: 360 h, read-out: GI
Echinochloa crus-galli [19] = experiment: Post emergence herbicidal activity against Echinochloa crus-galli (barnyard grass) seedlings assessed as plant growth inhibition at 37.5 g ai/ha measured 15 days after compound treatment under greenhouse conditions; type: functional; conditions: 360 h, read-out: GI

With `CCOC(=O)Sc1nc2cc(-n3nc(C)n(C(F)F)c3=O)c(Cl)cc2s1` the inhibition of growth at 150 g/ha (Chenopodium album [1]) was < 50%, the inhibition of growth at 150 g/ha (Amaranthus retroflexus [2]) was < 50% and the inhibition of growth at 150 g/ha (Brassica juncea [3]) was < 50%. For the same molecule, the inhibition of growth at 150 g/ha (Setaria faberi [4]) was < 50%, the inhibition of growth at 150 g/ha (Digitaria sanguinalis [5]) was < 50% and the inhibition of growth at 150 g/ha (Echinochloa crus-galli [6]) was < 50%.
In the case of `CCOC(=O)C(C)Sc1nc2cc(-n3nc(C)n(C(F)F)c3=O)c(Cl)cc2s1` (stereo unspecified), the inhibition of growth at 150 g/ha (Chenopodium album [1]) is reported as 60%, the inhibition of growth at 150 g/ha (Amaranthus retroflexus [2]) is reported as ≥ 90% and the inhibition of growth at 150 g/ha (Brassica juncea [3]) is reported as ≥ 90%. It also gave an inhibition of growth at 150 g/ha (Setaria faberi [4]) of 80%, an inhibition of growth at 150 g/ha (Digitaria sanguinalis [5]) of 80% and an inhibition of growth at 150 g/ha (Echinochloa crus-galli [6]) of 80%. The Ki [7] was 3.39 µM.
`CCOC(=O)CSc1nc2cc(-n3nc(C)n(C(F)F)c3=O)c(Cl)cc2s1` was tested, and the inhibition of growth at 150 g/ha (Chenopodium album [1]) was < 50%, the inhibition of growth at 150 g/ha (Amaranthus retroflexus [2]) was 80% and the inhibition of growth at 150 g/ha (Brassica juncea [3]) was ≥ 90%. For the same molecule, the inhibition of growth at 150 g/ha (Setaria faberi [4]) was 80%, the inhibition of growth at 150 g/ha (Digitaria sanguinalis [5]) was ≥ 90% and the inhibition of growth at 150 g/ha (Echinochloa crus-galli [6]) was ≥ 90%. For the same molecule, the Ki [7] was 1.37 µM.
`CSc1nc2cc(-n3nc(C)n(C(F)F)c3=O)c(F)cc2s1` was tested, and the inhibition of growth at 150 g/ha (Chenopodium album [1]) was < 50%, the inhibition of growth at 150 g/ha (Amaranthus retroflexus [2]) was 80% and the inhibition of growth at 150 g/ha (Brassica juncea [3]) was < 50%. For the same molecule, the inhibition of growth at 150 g/ha (Setaria faberi [4]) was 50%, the inhibition of growth at 150 g/ha (Digitaria sanguinalis [5]) was < 50% and the inhibition of growth at 150 g/ha (Echinochloa crus-galli [6]) was 50%. The Ki [7] was 0.51 µM.
With `CCCSc1nc2cc(-n3nc(C)n(C(F)F)c3=O)c(F)cc2s1` the inhibition of growth at 150 g/ha (Chenopodium album [1]) was < 50%, the inhibition of growth at 150 g/ha (Amaranthus retroflexus [2]) was 60% and the inhibition of growth at 150 g/ha (Brassica juncea [3]) was 60%. The inhibition of growth at 150 g/ha (Setaria faberi [4]) was 60%, the inhibition of growth at 150 g/ha (Digitaria sanguinalis [5]) was 80% and the inhibition of growth at 150 g/ha (Echinochloa crus-galli [6]) was 60%. The Ki [7] was 0.3 µM.
In the case of `C=CCSc1nc2cc(-n3nc(C)n(C(F)F)c3=O)c(F)cc2s1`, the inhibition of growth at 150 g/ha (Chenopodium album [1]) is reported as < 50%, the inhibition of growth at 150 g/ha (Amaranthus retroflexus [2]) is reported as 50% and the inhibition of growth at 150 g/ha (Brassica juncea [3]) is reported as < 50%. For the same molecule, the inhibition of growth at 150 g/ha (Setaria faberi [4]) was 60%, the inhibition of growth at 150 g/ha (Digitaria sanguinalis [5]) was 60% and the inhibition of growth at 150 g/ha (Echinochloa crus-galli [6]) was 80%. It also gave a Ki [7] of 0.2 µM.
With `CCCCSc1nc2cc(-n3nc(C)n(C(F)F)c3=O)c(F)cc2s1` the inhibition of growth at 150 g/ha (Chenopodium album [1]) was < 50%, the inhibition of growth at 150 g/ha (Amaranthus retroflexus [2]) was 60% and the inhibition of growth at 150 g/ha (Brassica juncea [3]) was 60%. For the same molecule, the inhibition of growth at 150 g/ha (Setaria faberi [4]) was 80%, the inhibition of growth at 150 g/ha (Digitaria sanguinalis [5]) was 80% and the inhibition of growth at 150 g/ha (Echinochloa crus-galli [6]) was 60%. The Ki [7] was 0.21 µM.
`CCOC(=O)CSc1nc2cc(-n3nc(C)n(C(F)F)c3=O)c(F)cc2s1` was tested, and the inhibition of growth at 75 g/ha (Chenopodium album [8]) was 80%, the inhibition of growth at 37.5 g/ha (Chenopodium album [9]) was 80% and the inhibition of growth at 150 g/ha (Chenopodium album [1]) was 80%. It also gave an inhibition of growth at 75 g/ha (Amaranthus retroflexus [10]) of 80%, an inhibition of growth at 37.5 g/ha (Amaranthus retroflexus [11]) of 80% and an inhibition of growth at 150 g/ha (Amaranthus retroflexus [2]) of 60%. The inhibition of growth at 75 g/ha (Brassica juncea [12]) was 80%, the inhibition of growth at 37.5 g/ha (Brassica juncea [13]) was 80% and the inhibition of growth at 150 g/ha (Brassica juncea [3]) was ≥ 90%. For the same molecule, the inhibition of growth at 75 g/ha (Setaria faberi [14]) was < 50%, the inhibition of growth at 37.5 g/ha (Setaria faberi [15]) was < 50% and the inhibition of growth at 150 g/ha (Setaria faberi [4]) was ≥ 90%. The inhibition of growth at 75 g/ha (Digitaria sanguinalis [16]) was 50%, the inhibition of growth at 37.5 g/ha (Digitaria sanguinalis [17]) was < 50% and the inhibition of growth at 150 g/ha (Digitaria sanguinalis [5]) was ≥ 90%. The inhibition of growth at 75 g/ha (Echinochloa crus-galli [18]) was 50%, the inhibition of growth at 37.5 g/ha (Echinochloa crus-galli [19]) was < 50% and the inhibition of growth at 150 g/ha (Echinochloa crus-galli [6]) was ≥ 90%. For the same molecule, the Ki [7] was 0.06 µM.
With `CCOC(=O)Sc1nc2cc(-n3nc(C)n(C(F)F)c3=O)c(F)cc2s1` the inhibition of growth at 75 g/ha (Chenopodium album [8]) was 60%, the inhibition of growth at 37.5 g/ha (Chenopodium album [9]) was < 50% and the inhibition of growth at 150 g/ha (Chenopodium album [1]) was ≥ 90%. The inhibition of growth at 75 g/ha (Amaranthus retroflexus [10]) was < 50%, the inhibition of growth at 37.5 g/ha (Amaranthus retroflexus [11]) was < 50% and the inhibition of growth at 150 g/ha (Amaranthus retroflexus [2]) was ≥ 90%. The inhibition of growth at 75 g/ha (Brassica juncea [12]) was < 50%, the inhibition of growth at 37.5 g/ha (Brassica juncea [13]) was < 50% and the inhibition of growth at 150 g/ha (Brassica juncea [3]) was ≥ 90%. The inhibition of growth at 75 g/ha (Setaria faberi [14]) was < 50%, the inhibition of growth at 37.5 g/ha (Setaria faberi [15]) was < 50% and the inhibition of growth at 150 g/ha (Setaria faberi [4]) was < 50%. The inhibition of growth at 75 g/ha (Digitaria sanguinalis [16]) was < 50%, the inhibition of growth at 37.5 g/ha (Digitaria sanguinalis [17]) was < 50% and the inhibition of growth at 150 g/ha (Digitaria sanguinalis [5]) was 50%. For the same molecule, the inhibition of growth at 75 g/ha (Echinochloa crus-galli [18]) was < 50%, the inhibition of growth at 37.5 g/ha (Echinochloa crus-galli [19]) was < 50% and the inhibition of growth at 150 g/ha (Echinochloa crus-galli [6]) was 50%. For the same molecule, the Ki [7] was 0.58 µM.
